From BindingDB's records for doi:10.1021/jm980439q (State University of New York, 1999)

Biological target: Voltage-dependent L-type calcium channel subunit alpha-1C (Cavia porcellus)
Experiment: Displacement of [3H](+)-PN200-110 binding to calcium channels in guinea pig cardiac membranes.

Structure (SMILES) | Ki [nM]
CCOC(=O)C1=C(C)N=C(C)C(C(=O)OCC)C1c1c(C)noc1CCc1cccc2ccccc12 (stereo not drawn) [2,6-Dimethyl-4-[3-methyl-5-(2-naphthalen-1-yl-ethyl)-isoxazol-4-yl]-1,4-dihydro-pyridine-3,5-dicarboxylic acid diethyl ester] | 4.1
CCOC(=O)C1=C(C)N=C(C)C(C(=O)OCC)C1c1c(C)noc1CCc1ccc2ccccc2c1 (stereo not drawn) [2,6-Dimethyl-4-[3-methyl-5-(2-naphthalen-2-yl-ethyl)-isoxazol-4-yl]-1,4-dihydro-pyridine-3,5-dicarboxylic acid diethyl ester] | 20
CCOC(=O)C1=C(C)N=C(C)C(C(=O)OCC)C1c1c(C)noc1CCc1ccccc1-c1ccccc1 (stereo not drawn) [4-[5-(2-Biphenyl-2-yl-ethyl)-3-methyl-isoxazol-4-yl]-2,6-dimethyl-1,4-dihydro-pyridine-3,5-dicarboxylic acid diethyl ester] | 91
